Results from patent US10213494B2, “Treatment of synucleinopathies” (The Brigham and Women's Hospital, Inc., priority 2007, dated 2019).

Tests used:
MES-syn cells = experiment: LDH release assay of cellular integrity; assay type: cell-based, rodent; conditions: enzyme cDNA 5 μg/10 cm dish, versus control vector transfected cells
Experimental: To confirm that the effect of Cathepsin D on lowering of αS in MES23.5 cells was specific and was not caused by a general decrease in cellular metabolism and integrity, the MTT and LDH assays were performed on MES-syn cells that had been co-transfected with the highest amount of Cathepsin D-encoding cDNA (5 μg/10 cm dish). Lysis of cells with 0.1% Triton-X® 100 served as a positive control, representing maximal cell death.
To confirm that the effect of Cathepsin F on lowering of αS was specific and was not caused by a general decrease in cellular integrity, the LDH assay was performed on MES-syn cells that had been co-transfected with Cathepsin F-encoding CTSF cDNA (5 μg/10 cm dish). Lysis of cells with 0.1% Triton-X 100 served as a positive control for cell toxicity, promoting maximal cell death.

rat αS in MES23.5 cells = experiment: Sandwich ELISA of co-transfected rat αS in MES23.5 cells; assay type: cell-based; conditions: human Cathepsin D, same paradigm
[1] = system: A30P, E46K, A53T, S129D, S129A and DQ/AA variants of α-synuclein in MES23.5 cells; experiment: Sandwich ELISA of mutant α-synuclein variants in MES23.5 cells co-transfected with CTSD cDNA; assay type: cell-based, human; conditions: cathepsin D cDNA 5 μg/10 cm dish
Experimental: Sera from six rabbits were raised and affinity-purified at Open Biosystems, Inc. (openbiosystems.com) against recombinant, full-length human αS. Recombinant αS had been HPLC- and MS-characterized and subjected to amino acid composition and protein concentration analyses. For ELISA, 384-well MaxiSorp plates (Nunc, Inc) were coated with 50 μl/well capturing polyclonal Ab (hSA-2) diluted in coating buffer (NaHCO3 with 0.2% NaN3, pH 9.6). Following washes with PBS/0.05% Tween-20 (PBS-T), plates were blocked for 2 hours at 37° C. in blocking buffer (1.125% fish skin gelatin; PBS-T). After 4 washes, samples were loaded and incubated at 4° C. for 12 hours. Biotinylated Syn-1 mAb (as the assaying Ab) was generated using 200 μg Sulfo-NHS-LC Biotin (Pierce), diluted in blocking buffer and added to the plate for 2 hours at 37° C. Following 4 washes, ExtrAvidin phosphatase (Sigma) diluted in blocking buffer was applied for 1 hr at 37° C. Color development was carried out by using Fast-p-Nitrophenyl Phosphate (Sigma) and monitored kinetically at OD 405 nm every 5 minutes for up to 60 minutes.
To examine whether Cathepsin D could also reduce the levels of missense mutation-carrying αS proteins, MES23.5 cells were transfected with low amounts (0.5 μg/10 cm dish) of SNCA cDNA encoding either the A30P, E46K or A53T variants of α-synuclein which are linked to familial Parkinson Disease in humans, as well as a S129D and a S129A mutant. Phosphorylation of αS at the Serine 129 residue is known to be a pathological hallmark of αS aggregates in vivo (Anderson J et al., 2006, J Biol Chem, 281:29739-29752). Mutation of a Ser residue to Asp is known in the art to mimic sustained, serine-based phosphorylation. The S129A mutant, a phosphorylation-incompetent mutant of αS, was also included for comparison.
As shown in the bar graph of FIG. 7, the co-expression of Cathepsin D-encoding CTSD cDNA (5 μg/10 cm dish) with either A30P, E46K, A53T, S129D, or S129A αS caused a similar degree reduction in αS levels for all αS proteins examined, when compared to their co-expression with empty vector DNA. When comparing the changes in α-synuclein steady-state to well-characterized levels of recombinant α-synuclein protein that was loaded in parallel, it was estimated that cathepsin D over-expression (at a cDNA concentration of 5 μg/10 cm dish) led to intracellular α-synuclein levels that were 23.98+/−3.57%, 33.08+/−18.51%, 39.21+/−14.63%, 34.84+/−11.36% and 34.31+/−13.39% of cognate control levels, for A30P, E46K, A53T, S129D, or S129A αS polypeptides, respectively (n=2 (−3) from 2-3 independent experiments).
Of note, residues D98 and Q99 of αS represent the motif by which αS is recognized by the Lamp2a receptor during chaperone mediated autophagy (CMA); Cuervo et al, 2004, Science, vol 305, pp 1292-1295). To investigate the importance of this motif in the αS-lowering action induced by cathepsin D, MES 23.5 cells were also transfected with a cDNA (0.5 μg/10 cm dish) encoding a mutant αS variant, where the D98 and Q99 residues had both been changed to Alanine (A) by site-directed mutagenesis (i.e., DQ/AA-variant of αS). When comparing the changes in the DQ/AA-αS steady-state to well-characterized levels of recombinant α-synuclein protein that were loaded in parallel, it was estimated that cathepsin D over-expression (5 μg/10 cm dish) led to intracellular DQ/AA αS levels that were 22.14+/−5.32% of the vector control levels, (n=3, from 3 independent experiments; not shown).

Substance: cathepsin D: human lysosomal aspartyl protease expressed from CTSD cDNA plasmid under a CMV promoter
- LDH signal (MES-syn cells): identical to that of control vector transfected cells
- effect on level of co-transfected rat αS (rat αS in MES23.5 cells): able to lower the levels of co-transfected rat αS
- intracellular α-synuclein level, % of cognate control levels ([1]; A30P αS): 23.98+/−3.57%
- intracellular α-synuclein level, % of cognate control levels ([1]; A53T αS): 39.21+/−14.63%
- intracellular DQ/AA αS level, % of vector control levels ([1]; DQ/AA αS (D98A/Q99A), n=3): 22.14+/−5.32%
- intracellular α-synuclein level, % of cognate control levels ([1]; E46K αS): 33.08+/−18.51%
- intracellular α-synuclein level, % of cognate control levels ([1]; S129A αS): 34.31+/−13.39%
- intracellular α-synuclein level, % of cognate control levels ([1]; S129D αS): 34.84+/−11.36%
